# According to patent publication US9192618B2, “Method of treating constipation-predominant irritable bowel syndrome” (Cedars-Sinai Medical Center, priority 2002, dated 2015):
# Tests used:
# [1] = tested on: irritable bowel syndrome (IBS) subjects; assay: Double-blind, randomized, placebo-controlled study of neomycin in IBS subjects (symptom questionnaire and lactulose breath test); format: in vivo, human; settings: for patient-reported bowel normalization / reduction in composite score (CS): mean ± S.E.
# Excerpt: In a double-blind, randomized, placebo-controlled study, we confirm that an abnormal lactulose breath test is more prevalent in IBS than normal controls, and that antibiotic treatment in IBS leads to an improvement in symptoms and that this is based on antibiotic-induced normalization of breath test. […] This is another important step in linking SIBO and IBS.
# Study subjects were recruited by advertising in local newspapers, radio and IBS support groups throughout the greater Los Angeles area. To avoid referral bias, subjects were not recruited through the GI motility clinic or any gastroenterology practice based at Cedars-Sinai Medical Center. Subjects were included if they met Rome I criteria for IBS (7). […] Subjects were excluded if they had antibiotics within the previous three months, a previous lactulose breath test (LBT), or a history of diabetes, thyroid disease, intestinal surgery (except cholecystectomy or appendectomy), connective tissue disease, narcotic use or known gastrointestinal disease. Subjects with renal insufficiency, hearing impairment, probiotic use or allergy to aminoglycosides were also excluded. Approval from the institutional review board and written informed consent from the participating subjects were obtained.
# Subjects presented to the GI Motility Laboratory having fasted from 7:00 p.m. the night before. They were instructed not to ingest legumes or a heavy meal for dinner the night prior to evaluation. Good oral hygiene was recommended and smoking was not permitted on the day of testing.
# Prior to the LBT, subjects completed a symptom questionnaire asking them to grade nine IBS symptoms (abdominal pain, diarrhea, constipation, bloating, sense of incomplete evacuation, straining, urgency, mucus and gas) on a severity score of 0-5 as has been previously used and recommended (15-17). All questions were answered based on their recall of the preceding 7 days (17).
# Subjects then underwent a LBT by ingesting 10 g of lactulose (Inalco Spa, Milano, Italy, packaged by Xactdose Inc., South Beloit, Ill.) followed by 1-2 ounces of water after an initial baseline breath sample. Breath samples were then collected at 15 minute intervals for 180 minutes. End expiratory breath samples were taken to ensure alveolar gas sampling. Samples were analyzed for hydrogen, methane and carbon dioxide using a Model SC, Quintron gas chromatograph (Quintron Instrument Company, Milwaukee, Wis.). Carbon dioxide measurements were used to correct for the quality of alveolar sampling. Measurements were plotted graphically as previously described (12). Patients and investigators were blinded to the result of the breath test.
# All subjects were randomized by personnel not associated with the study to receive, in a double blind fashion, either neomycin (500 mg) (Teva pharmaceuticals, USA, Sellersville, Pa.) or matching placebo twice daily for 10 days. Seven days after completion of the antibiotic or placebo, subjects returned for a repeat questionnaire and LBT. A seven day follow up was chosen since in our experience the abnormal breath test in IBS can recur as early as two weeks after antibiotic normalization. As part of the follow up questionnaire, subjects were asked to subjectively rate the amount of improvement they experienced as a percent normalization of bowel function and repeated their perceived severity of the 9 bowel symptoms described earlier. Compliance was assessed by pill count. To comply with institutional review board requirements, follow-up LBT results could not be blinded so patients could seek appropriate medical therapy for their test result.
# At the completion of enrollment, all initial and follow-up breath tests were coded and randomized by personnel not involved in the interpretation of the test. A blinded reviewer (M.P.) interpreted the results and was asked to categorize the breath tests based on whether the test met the criteria for normal LBT. […]
# [2] = tested on: intestinal transit in dogs; assay: Intestinal transit in dogs with duodenal and mid-gut fistulas after bolus delivery of gas to the distal gut (99mTc-DTPA recovery); format: in vivo; settings: 180 ml bolus to the distal gut at time 0, n=three dogs
# Experimental: In dogs equipped with duodenal (10 cm from pylorus) and mid-gut (160 cm from pylorus) fistulas, intestinal transit was compared across an isolated 150 cm test segment (between fistulas) while the proximal segment of the gut was perfused with pH 7.0 phosphate buffer at 2 mL/min for 90 minutes. Room air (n=three dogs) or methane (n=three dogs) was delivered into the distal gut as a 180-ml bolus at time 0. Sixty minutes after the start of the perfusion, 20 μCi of ^99mTc-DTPA (diethylenetriaminepentaacetic acid) was delivered as a bolus into the proximal segment of the gut. Intestinal transit was then measured by counting the radioactivity of 1 ml samples collected every 5 minutes from the diverted output of the mid-gut fistula. Intestinal transit was calculated by determining the area under the curve (AUC) of the cumulative percent recovery of the radioactive marker in the control (air administration) and experimental (methane administration) dogs. The square root values of the AUC (Sqrt AUC), where 0=no recovery by 30 minutes and 47.4=theoretical, instantaneous complete recovery by time 0, were compared for the control and experimental animals, using 2-way repeated measures ANOVA.
# IBS = settings: literature report (ref. 21); cited from earlier work
compound,measurement,setting,value
neomycin,patient-reported bowel normalization,[1]; 91 subjects who completed the question,40.1±5.3%
same,subjects achieving normalization of LBT,"[1]; abnormal baseline LBT, complete data, 8 out of 41",20%
same,self-reported percent bowel normalization,"[1]; abnormal baseline LBT, neomycin but not successful normalization of LBT",36.7±6.1%
same,percent reduction in CS,"[1]; abnormal baseline LBT, neomycin-treated group that did not achieve LBT normalization",34.4±6.2%
same,percent reduction in CS,"[1]; abnormal baseline LBT, neomycin-treated group with LBT normalization",61.7±9.4%
same,self-reported percent bowel normalization,"[1]; abnormal baseline LBT, normal follow up LBT after neomycin",75.0±6.4%
same,subjects with true clinical response (≧50% improvement in CS),"[1]; all subjects receiving neomycin, 24 out of 55",43%
same,odds ratio of true clinical response (≧50% improvement in CS) versus placebo,"[1]; all subjects, CI=1.05-6.3",4.3
same,reduction in composite score (CS),"[1]; intention-to-treat, all subjects (n=111), neomycin 500 mg twice daily for 10 days",35.0±0.7%
same,reduction in composite score (CS),[1]; subgroup with abnormal baseline LBT (n=93),35.4±0.8%
same,subjects with true clinical response (≧50% improvement in CS),"[1]; subgroup with abnormal breath tests, 21 out of 46",46%
same,odds ratio of true clinical response (≧50% improvement in CS) versus placebo,"[1]; subgroup with abnormal breath tests, CI=1.62-14.7",4.8
same,patient-reported bowel normalization,[1]; subgroup with abnormal initial breath tests,44.8±5.6%
same,reduction in composite score (CS) versus placebo,[1]; subjects with a normal baseline breath test,No difference
same,subjects with true clinical response (≧50% reported bowel normalization),[1]; subjects with abnormal initial breath test,55%
same,odds ratio of true clinical response (≧50% reported bowel normalization) versus placebo,"[1]; subjects with abnormal initial breath test, CI=2.5-39.7",9.6
same,subjects reporting more than 50% normalization of bowel function,"[1]; subjects with normal follow up LBT after neomycin, 7 out of 8",88%
same,odds ratio of true clinical response (≧50% reported bowel normalization) versus placebo,"[1]; whole group who answered (n=91), CI=1.7-14.4",4.8
same,subjects with true clinical response (≧50% reported bowel normalization),[1]; whole group who answered the question (n=91),50%
C [methane],effect on rate of intestinal transit versus room air control,[2],substantially slowed the rate of intestinal transit
same,effect on rate of intestinal transit versus room air control,[2]; listed as Methane,slowed intestinal transit
Cc1ncc([N+](=O)[O-])n1CCO [flagyl],reduction of clinical symptoms in IBS versus placebo,IBS,superior to placebo
